In brackets after ≈: the same amount, converted by molar mass. Positions of bridges follow the written chain, without caps; N, C: chain ends. Residues, ends and D or L forms follow the SMILES beside them. No end group written: not given here.
How the values were obtained:
S. aureus DPC5246 = details: BHI broth, 37° C., 24 h, OD590
[1] = test system: L. monocytogenes NCTC 11994; details: BHI broth, 37° C., 24 h, OD590
E. coli strains = details: broth-based MIC50 assay
Staphylococcus aureus = experiment: antimicrobial activity of purified peptide (FIG. 1); assay type: cell-based
L. salivarius UCC118 = experiment: inhibition of strains closely related to the producer; assay type: cell-based, Lactobacillus salivarius
Listeria = experiment: antimicrobial activity of purified peptide (FIG. 1); assay type: cell-based
Experimental: (§1) The antimicrobial peptide was purified from a 0.5 L overnight culture of L. salivarius DPC6502 grown in MRS-IM-G media. The cells were removed by centrifugation at 8,000×g for 15 min, and the supernatant applied to a column containing 10 ml SP sepharose Fast flow cation-exchange resin (GE Healthcare, UK) previously equilibrated with 50 mM sodium acetate buffer, pH 4.5. The column was washed with 50 mM sodium acetate buffer, pH 4.5 containing 0.3 M NaCl, the bioactive peptide was subsequently eluted from the column using 50 mM sodium acetate buffer, pH 4.5 containing 1.0 M NaCl. The eluate was applied to a 2.0 g (12 ml volume) C18 Bond Elute column (Phenomenex, Cheshire, UK) pre-equilibrated with methanol and water. […] The column was pre-equilibrated with 10% acetonitrile containing 0.1% (vol/vol) TFA, followed by separation and elution of the bioactive peptide by gradient RP-HPLC using 0.1% (vol/vol) TFA and acetonitrile concentrations that ranged from 10% to 30% (vol/vol), from 5 to 45 min at a flow rate of 1.0 ml min^−1 Absorbance was monitored at a wavelength of 214 nm. Antimicrobial peptide activity was monitored throughout the purification procedure by well diffusion assay using the sensitive indicator strain L. delbrueckii subsp. bulgaricus LMG6901. […]

[2] = test system: L. delbrueckii subsp. bulgaricus; experiment: antimicrobial activity of purified peptide (well diffusion, FIG. 1); assay type: cell-based, Lactobacillus delbrueckii subsp. bulgaricus
Experimental: as §1

[3] = test system: bovine mastitis isolate S. aureus DPC5245; details: cited from earlier work

Compound: CSCC[C@H](NC(=O)CNC(=O)[C@@H](NC(=O)[C@@H]1CCCN1C(=O)[C@H](CCSC)NC(=O)CNC(=O)[C@H](CC(N)=O)NC(=O)[C@H](CC(N)=O)NC(=O)[C@H](Cc1ccc(O)cc1)NC(=O)[C@@H](NC(=O)[C@H](CCCNC(=N)N)NC(=O)[C@H](CS)NC(=O)[C@H](CCCNC(=N)N)NC(=O)[C@H](Cc1c[nH]cn1)NC(=O)[C@H](CCCCN)NC(=O)[C@H](CCCCN)NC(=O)[C@H](CCCNC(=N)N)NC(=O)[C@@H](N)CCCCN)C(C)C)[C@@H](C)O)C(=O)N[C@@H](Cc1ccc(O)cc1)C(=O)N[C@@H](CCCNC(=N)N)C(=O)N[C@@H](Cc1c[nH]c2ccccc12)C(=O)N[C@@H](CS)C(=O)O [synthetic Bactofensin LS1] (H-KRKKHRCRVYNNGMPTGMYRWC-OH; N-terminus assumed)
- concentration that did not inhibit (MIC50 assay) (E. sakazakii strains): > 50 µM
- MIC50 (concentration sufficient to inhibit growth by 50%) (S. aureus DPC5246): 5 µM (≈ 13.9 µg/mL)
- MIC50 (concentration sufficient to inhibit growth by 50%) [1]: 5 µM (≈ 13.9 µg/mL)
- concentration that did not inhibit (MIC50 assay) (E. coli strains): > 50 µM

Compound: Bactofensin LS1: 22 aa cationic class II antimicrobial peptide of SEQ ID NO: 2 purified from L. salivarius DPC6502 (KRKKHRCRVYNNGMPTGMYRWC; disulfide 7-22; listed as Lactobacillus salivarius)
- antimicrobial activity (Staphylococcus aureus): active
- inhibition of closely related strains (L. salivarius UCC118): inhibits
- antimicrobial activity (Listeria): active
- antimicrobial activity [2]: active

Compound: lacticin 3147
- MIC50 [3]: 7 to 8 µM

— patent US20140286904A1, “ANITMICROBIAL PEPTIDE PRODUCED BY INTESTINAL LACTOBACILLUS SALIVARIUS” (AGRICULTURE AND FOOD DEVELOPMENT AUTHORITY (TEAGASC), priority 2011, published 2014)
